# Like-named read-outs stand apart in the source and are kept apart here.
# Assays:
# [1] = tested on: DD2; design: method as in downloaded from ChEMBL; conditions: ref downloaded from ChEMBL; cited from earlier work
# [2] = target: T1, Plasmodium falciparum calcium-dependent protein kinase 1 (CDPK1) (Plasmodium falciparum, UniProt P62344); test: CDPK1 Kinase-Glo ATP-consumption screen and dose-response; type: biochemical
# T1 construct: 6-Histidine (N); made in house
# How it was run: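 Single-point testing used 1 μM final compound, then dose-response, against CDPK4 and CDPK1 with Syntide-2 (40 μM) as substrate. After 90 min, reactions were halted by 5 mM EGTA, and kinase activity was inferred from depleted ATP via Kinase-Glo luminescence.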
# [3] = tested on: P. falciparum 3D7 cells; conditions: cited from earlier work
# [4] = tested on: HepG2 cells; conditions: cited from earlier work
# [5] = tested on: 3D7 PFLDH; design: method as in downloaded from ChEMBL; conditions: ref downloaded from ChEMBL; cited from earlier work
# [6] = tested on: 3D7 PFLDH; design: method as in F.J. Gamo et al., Nature 2010; conditions: downloaded from ChEMBL ref F.J. Gamo et al., Nature 2010; cited from earlier work
# [7] = target: T2, Plasmodium falciparum protein kinase 6 (PK6) (Plasmodium falciparum, UniProt Q8IDW1); test: biochemical; conditions: hits below 1 uM; read-out: PK6 IC50
# T2 construct: 6-Histidine (N); made in house
# T2 sequence (Q8IDW1 1-305): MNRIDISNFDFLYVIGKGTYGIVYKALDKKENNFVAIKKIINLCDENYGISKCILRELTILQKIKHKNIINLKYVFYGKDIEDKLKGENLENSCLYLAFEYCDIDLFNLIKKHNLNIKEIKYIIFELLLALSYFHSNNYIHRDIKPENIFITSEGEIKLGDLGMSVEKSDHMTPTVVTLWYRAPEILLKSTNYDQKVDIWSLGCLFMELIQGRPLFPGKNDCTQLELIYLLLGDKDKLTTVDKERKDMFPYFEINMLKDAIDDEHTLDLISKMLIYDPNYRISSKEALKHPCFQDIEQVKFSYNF
# [8] = tested on: DD2; design: method as in F.J. Gamo et al., Nature 2010; conditions: P. falciparum Dd2; downloaded from ChEMBL ref F.J. Gamo et al., Nature 2010; cited from earlier work
# [9] = tested on: 3D7 PFLDH; design: method as in F.J. Gamo et al., Nature 2010; concentration or dose not given beside the values; conditions: downloaded from ChEMBL, ref F.J. Gamo et al., Nature 2010; cited from earlier work
# [10] = tested on: DD2; design: method as in F.J. Gamo et al., Nature 2010; conditions: downloaded from ChEMBL, ref F.J. Gamo et al., Nature 2010; cited from earlier work
# [11] = hits below 1 uM, read-out: CDPK1 IC50
# [12] = 3D7, ref downloaded from ChEMBL
# [13] = HEPG2, ref downloaded from ChEMBL
# [14] = P. falciparum 3D7, downloaded from ChEMBL ref F.J. Gamo et al., Nature 2010
# [15] = HepG2 cells, downloaded from ChEMBL ref F.J. Gamo et al., Nature 2010
# [16] = 3D7, downloaded from ChEMBL, ref F.J. Gamo et al., Nature 2010
# [17] = HepG2, downloaded from ChEMBL, ref F.J. Gamo et al., Nature 2010
# T1 sequence (P62344 whole entry): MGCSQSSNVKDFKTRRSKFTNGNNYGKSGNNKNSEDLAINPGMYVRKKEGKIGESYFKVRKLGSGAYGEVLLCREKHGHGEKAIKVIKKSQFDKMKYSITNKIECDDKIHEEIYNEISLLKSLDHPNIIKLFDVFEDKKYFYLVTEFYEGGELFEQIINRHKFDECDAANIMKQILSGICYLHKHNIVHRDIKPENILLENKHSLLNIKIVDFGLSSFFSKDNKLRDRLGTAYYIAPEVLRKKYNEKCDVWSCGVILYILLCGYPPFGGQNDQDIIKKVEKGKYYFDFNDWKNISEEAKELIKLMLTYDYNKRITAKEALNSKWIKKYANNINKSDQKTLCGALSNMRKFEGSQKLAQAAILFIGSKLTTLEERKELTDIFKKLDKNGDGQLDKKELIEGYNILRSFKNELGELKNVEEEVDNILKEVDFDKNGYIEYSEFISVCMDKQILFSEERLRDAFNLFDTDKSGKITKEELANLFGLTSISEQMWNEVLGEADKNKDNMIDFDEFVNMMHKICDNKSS
"IC50 [2, 11] [µM]",Structure (SMILES),PCT_INHB_DD2 [1],"PCT_IHB_3D7 [3, 12]","pXC50_3D7 [3, 12]","PCT_INHIB_HEPG2 [4, 13]",PCT_INHIB_3D7_PFLDH [5],also measured
0.312,COc1ccc(Nc2ncc3c(-c4cccc(NC(=O)Cc5cccc(O)c5)c4)c[nH]c3n2)cc1OC [TCMDC-135247],96,100,6.156,44,0,–
0.913,COCCNCc1cccc(-c2ccc3c(Nc4ccc(Oc5cccnc5)cc4)ccnc3c2)c1 [TCMDC-138487],99,100,6.749,58,0,–
–,NS(=O)(=O)c1cccc(Nc2nccc(-c3cnn4ncccc34)n2)c1 [TCMDC-138919],–,–,–,–,–,"PCT_INHIB_3D7_PFLDH [6]: 0; PCT_IHB_3D7 [3, 14]: 89; pXC50_3D7 [3, 14]: 6.18; IC50 [7]: 0.246 µM; PCT_INHB_DD2 [8]: 89; PCT_INHIB_HEPG2 [4, 15]: 39"
0.383,Fc1cc(Cl)ccc1Nc1ccnc2cc(-c3ccc(CNCCN4CCOCC4)o3)ccc12 [TCMDC-138397],100,100,6.5582,13,0,–
0.681,CN(C)CCNCc1ccc(-c2ccc3c(Nc4ccc(Oc5ccccc5)cc4)ccnc3c2)o1 [TCMDC-138399],99,100,6.553,19,2,–
0.15,COCCNCc1ncsc1-c1ccc2c(Nc3cc(O)c(Cl)cc3F)ccnc2c1 [TCMDC-138441],92,100,6.262,0,0,–
0.604,CN(C)CCN(C)Cc1ccc(-c2ccc3c(Nc4ccc(Cl)cc4F)ccnc3c2)o1 [TCMDC-138388],76,100,6.444,20,1,–
0.762,CN1CCN(Cc2cccc(-c3ccc4c(Nc5cc(O)c(Cl)cc5F)ccnc4c3)c2)CC1 [TCMDC-138430],100,100,6.114,0,4,–
0.513,CN(C)Cc1ccc(-c2ccc3c(Nc4ccc(Oc5ccccn5)cc4)ccnc3c2)o1 [TCMDC-138425],100,100,6.798,18,1,–
0.125,Cc1ccc(O)cc1Nc1ccnc2cc(-c3cccc(CNCCS(C)(=O)=O)c3)ccc12 [TCMDC-138472],100,99,6.078,9,2,–
0.39,COc1ccc(-c2cnc3[nH]cc(-c4ccncc4)c3c2)cc1OC [TCMDC-135853],97,98,6.899,52,0,–
–,COc1ccc(-c2cnc3ccc(NCCCO)nn23)cc1OC [TCMDC-136683],90,98,6.172,9,0,IC50 [2]: 0.361 µM
0.966,CS(=O)(=O)CCNCc1cccc(-c2ccc3c(Nc4ccc(Oc5cccnc5)cc4)ccnc3c2)c1 [TCMDC-138488],99,100,6.847,27,4,–
0.552,CS(=O)(=O)Nc1cccc(-c2cnc3[nH]cc(-c4ccc(CN)cc4)c3c2)c1 [TCMDC-136218],95,98,6.0063,27,2,–
0.145,COc1cc2nccc(Nc3ccc(Oc4ccccc4)cc3)c2cc1OC.Cl [TCMDC-131917],99,100,6.165,13,0,–
0.115,Oc1cccc(-c2cnc3ccc(NCc4ccc(F)cc4)nn23)c1 [TCMDC-136676],66,91,5.965,0,2,–
0.379,COc1ccc(-c2cnc3ccc(NC4CCC(O)CC4)nn23)cn1 (stereo not drawn) [TCMDC-136694],73,98,6.146,54,4,–
0.131,CN1CCN(Cc2ccc(-c3ccc4c(Nc5cc(O)c(Cl)cc5F)ccnc4c3)o2)CC1 [TCMDC-138446],99,100,6.961,2,0,–
–,Nc1ncc(-c2cccc(F)c2)cc1-c1nc2cc(F)ccc2[nH]1.O=C(O)C(F)(F)F [TCMDC-133132],–,–,–,–,–,"PCT_INHIB_3D7_PFLDH [6]: 0; PCT_IHB_3D7 [3, 14]: 100; pXC50_3D7 [3, 14]: 6.757; IC50 [7]: 0.206 µM; PCT_INHB_DD2 [8]: 88; PCT_INHIB_HEPG2 [4, 15]: 54"
0.718,CN(C)CCN(C)Cc1ccc(-c2ccc3c(Nc4ccc(Oc5ccccc5)cc4)ccnc3c2)o1 [TCMDC-138400],100,100,6.746,5,0,–
0.845,CN(C)CCNCc1cccc(-c2ccc3c(Nc4ccc(Oc5ccccn5)cc4)ccnc3c2)c1 [TCMDC-138493],100,99,6.633,27,2,–
0.559,COc1ccc(Nc2ncc(Cl)c(Nc3cccnc3C(N)=O)n2)cc1N1CCN(C)CC1.Cl [TCMDC-134163],–,–,–,–,–,"PCT_INHIB_3D7_PFLDH [9]: 6%; PCT_IHB_3D7 [3, 16]: 95%; pXC50_3D7 [3, 16]: 6.6478; PCT_INHB_DD2 [10]: 97%; IC50 [7]: 0.086 µM; PCT_INHIB_HEPG2 [4, 17]: 77%"
0.076,Cc1cc(Nc2ncc(Cl)c(Nc3ccccc3C(N)=O)n2)n[nH]1 [TCMDC-134170],–,–,–,–,–,"PCT_INHIB_3D7_PFLDH [9]: 0%; PCT_IHB_3D7 [3, 16]: 98%; pXC50_3D7 [3, 16]: 6.091; PCT_INHB_DD2 [10]: 96%; IC50 [7]: 0.129 µM; PCT_INHIB_HEPG2 [4, 17]: 70%"
0.045,CNC(=O)c1ccccc1Nc1nc(Nc2ccc(N3CCN(C)CC3)nc2)ncc1C.Cl [TCMDC-134123],–,–,–,–,–,"PCT_INHIB_3D7_PFLDH [9]: 4%; PCT_IHB_3D7 [3, 16]: 92%; pXC50_3D7 [3, 16]: 5.942; PCT_INHB_DD2 [10]: 50%; IC50 [7]: 0.143 µM; PCT_INHIB_HEPG2 [4, 17]: 75%"
0.144,CNC(=O)c1ccccc1Nc1nc(Nc2ccc(N3CCOCC3)cc2)ncc1Cl.Cl [TCMDC-134144],–,–,–,–,–,"PCT_INHIB_3D7_PFLDH [9]: 0%; PCT_IHB_3D7 [3, 16]: 97%; pXC50_3D7 [3, 16]: 6.138; PCT_INHB_DD2 [10]: 97%; IC50 [7]: 0.042 µM; PCT_INHIB_HEPG2 [4, 17]: 75%"
0.997,Cl.Oc1cccc(Nc2ccnc3cc(-c4nccs4)ccc23)c1 [TCMDC-138297],–,98,–,0,0,–
0.232,CN1CCN(c2ccc(Nc3nccc(-c4cnn5ncccc45)n3)cc2Cl)CC1 [TCMDC-138688],–,–,–,–,–,"PCT_INHIB_3D7_PFLDH [6]: 0; PCT_IHB_3D7 [3, 14]: 95; pXC50_3D7 [3, 14]: 6.08; IC50 [7]: 0.179 µM; PCT_INHB_DD2 [8]: 92; PCT_INHIB_HEPG2 [4, 15]: 65"

Structure (SMILES),"IC50 [2, 11] [µM]",PCT_INHB_DD2 [1],"PCT_IHB_3D7 [3, 12]","pXC50_3D7 [3, 12]","PCT_INHIB_HEPG2 [4, 13]",PCT_INHIB_3D7_PFLDH [5],also measured
CS(=O)(=O)c1cccc(-c2cnc3[nH]cc(-c4cccc(CCN)c4)c3c2)c1.O=C(O)C(F)(F)F [TCMDC-136307],0.044,74,99,5.808,0,0,–

# Reference: paper PMC4774911, “Biochemical Screening of Five Protein Kinases from Plasmodium falciparum against 14,000 Cell-Active Compounds” (PLoS ONE, 2016)
